Measured values reported in patent publication US11479551B2, “MTA-cooperative PRMT5 inhibitors” (Mirati Therapeutics, Inc., priority 2019, dated 2022).

How the values were obtained:
[1] = tested on: HCT116 homozygous MTAP knockout cells; test: Proliferation assay (CellTiter-Glo, 10 days of treatment), HCT116 MTAP knockout; assay type: cell-based; details: Homo sapiens, HCT-116, 240 h, read-out: Proliferation HCT116MTAP_KO IC50
Outline: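 Viability of the CRISPR/Cas9 homozygous MTAP-knockout HCT116 line was read by CellTiter-Glo after 10 days of PRMT5 inhibitor exposure, with IC50 derived from the dose response. Compound was given the day after seeding and renewed at an identical concentration when cells were split 1:10 on day 6.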

[2] = tested on: PRMT5-dependent Symmetric Di-methyl Arginine signal in HCT116 parental cells; test: SYM11 In-Cell Western, HCT116 parental; assay type: cell-based; details: Homo sapiens, HCT-116, 96 h, 4 days of treatment, SYM11/DRAQ5 ratio
Outline: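 HCT116 parental cells (2,000/well, McCoy's 5A with 10% FBS) dosed with PRMT5 inhibitors for four days at 37° C. Fixed in paraformaldehyde and methanol, then stained with SYM11 antibody and DRAQ5.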

HCT116 parental cells = test: Proliferation assay (CellTiter-Glo, 10 days of treatment), HCT116 parental; assay type: cell-based; details: Homo sapiens, HCT-116, 240 h
Outline: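 250 cells seeded in McCoy's 5A with 10% FBS, then given a dose response of PRMT5 inhibitor at 37 °C, 5% CO2 for five days. Cells were split 1:10 on Day 6 into fresh medium with the same compound concentration for 5 more days. Viability read on Day 11 by CellTiter-Glo; IC50 after 10 days of treatment.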

PRMT5/MEP50 complex [3] = target: T1, PRMT5/MEP50 complex (Homo sapiens (Human), UniProt O14744); test: PRMT5:MEP50 FlashPlate Assay (histone H4 peptide substrate, plus and minus MTA); assay type: biochemical
T1 sequence (O14744 2-637): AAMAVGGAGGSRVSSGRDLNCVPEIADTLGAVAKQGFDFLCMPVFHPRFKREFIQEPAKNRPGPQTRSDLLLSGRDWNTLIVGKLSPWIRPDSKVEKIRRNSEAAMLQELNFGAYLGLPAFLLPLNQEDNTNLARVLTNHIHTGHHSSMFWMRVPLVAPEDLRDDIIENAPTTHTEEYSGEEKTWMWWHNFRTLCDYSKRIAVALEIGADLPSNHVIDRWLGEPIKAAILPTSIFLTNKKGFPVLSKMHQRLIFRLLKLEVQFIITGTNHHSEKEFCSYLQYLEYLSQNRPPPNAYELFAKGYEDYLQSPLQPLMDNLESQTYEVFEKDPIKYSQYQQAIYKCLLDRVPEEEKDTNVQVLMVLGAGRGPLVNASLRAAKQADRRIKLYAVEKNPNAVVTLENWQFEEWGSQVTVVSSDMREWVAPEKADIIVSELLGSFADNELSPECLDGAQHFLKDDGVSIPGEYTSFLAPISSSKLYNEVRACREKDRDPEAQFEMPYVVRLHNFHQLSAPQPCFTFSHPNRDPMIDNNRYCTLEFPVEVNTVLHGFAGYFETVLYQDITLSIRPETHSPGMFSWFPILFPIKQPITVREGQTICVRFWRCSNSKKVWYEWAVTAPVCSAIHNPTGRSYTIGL
T1 sequence (Q9BQA1 2-342 partner): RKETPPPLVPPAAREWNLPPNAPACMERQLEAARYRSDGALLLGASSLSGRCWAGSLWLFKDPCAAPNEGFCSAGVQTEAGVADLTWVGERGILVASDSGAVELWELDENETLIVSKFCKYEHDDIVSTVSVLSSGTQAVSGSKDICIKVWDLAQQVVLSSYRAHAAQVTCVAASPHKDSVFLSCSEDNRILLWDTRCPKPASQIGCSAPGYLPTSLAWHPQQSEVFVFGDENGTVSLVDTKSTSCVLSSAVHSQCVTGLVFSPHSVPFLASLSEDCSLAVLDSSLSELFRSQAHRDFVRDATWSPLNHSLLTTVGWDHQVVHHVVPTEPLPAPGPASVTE
Experimental: The PRMT5 inhibitory activity of compounds of the present invention was determined using either a PRMT5:MEP50 FlashPlate Assay (Reaction Biology Corporation) or a PRMT5:MEP50 HotSpot Assay (Reaction Biology Corporation).
1. PRMT5:MEP50 FlashPlate Assay

PRMT5/MEP50 complex [4] = target: T1, PRMT5/MEP50 complex; test: PRMT5:MEP50 HotSpot Assay (full-length histone H2A substrate, plus and minus MTA); assay type: biochemical; details: IC50 + 2 μM MTA, in the presence of 2 μM MTA
Outline: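 Tritium incorporated into recombinant full-length histone H2A was counted by scintillation after stopped reactions were captured on filter paper.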

[5] = tested on: PRMT5-dependent Symmetric Di-methyl Arginine signal in HCT116 homozygous MTAP knockout cells; test: SYM11 In-Cell Western, HCT116 MTAP knockout; assay type: cell-based; details: Homo sapiens, HCT-116, 96 h, HCT116 homozygous MTAP knockout cells, 4 days of treatment, SYM11/DRAQ5 ratio; read-out: In-cell-Western (SYM11) HCT116 MTAP_KO IC50
[6] = IC50 + 2 μM MTA (nM), in the presence of 2 μM MTA
[7] = in the absence of MTA, read-out: IC50

Row | SMILES | IC50 [1] [µM] | IC50 [2] [µM] | IC50 (HCT116 parental cells) [µM] | IC50 (PRMT5/MEP50 complex [3]; [6]) [nM] | IC50 (PRMT5/MEP50 complex [3]; [7]) [nM] | IC50 (PRMT5/MEP50 complex [4]) [µM] | IC50 [5] [µM]
1 | Cc1cccc(-c2c(-c3ccc4c(=O)[nH]nc(CN)c4c3)cnn2C)c1 [Example 4-94, 4-(aminomethyl)-6-(1-methyl-5-(m-tolyl)-1H-pyrazol-4-yl)phthalazin-1(2H)-one] | 1.84 | 10 | 4.88 | 2.2 | 83 | 0.737 | 1.18
2 | Cn1ncc(-c2ccc3c(=O)[nH]nc(CN)c3c2)c1-c1ccccc1C#N [Example 4-100, 2-(4-(4-(aminomethyl)-1-oxo-1,2-dihydrophthalazin-6-yl)-1-methyl-1H-pyrazol-5-yl)benzonitrile] | 5.23 | 10 | 10 | 0.5 | 80 | 1.51 | 0.505
3 | CCOc1ccn2ncc(-c3ccc4c(=O)[nH]nc(CN)c4c3)c2c1 [Example 4-158, 4-(aminomethyl)-6-(5-ethoxypyrazolo[1,5-a]pyridin-3-yl)phthalazin-1(2H)-one] | 2.2 | > 10 | 1.74 | 2.8 | 113 | 1.46 | > 10
4 | CN(c1ccccc1)c1cncc(-c2ccc3c(=O)[nH]nc(CN)c3c2)c1 [Example 4-159, 4-(aminomethyl)-6-(5-(methyl(phenyl)amino)pyridin-3-yl)phthalazin-1(2H)-one] | 8.25 | > 10 | > 10 | 4 | 68.4 | 0.393 | > 10
5 | Cc1c(Cl)ccc(-c2c(-c3ccc4c(=O)[nH]nc(CN)c4c3)cnn2C)c1C#N [Example 12-1, 6-(4-(4-(aminomethyl)-1-oxo-1,2-dihydrophthalazin-6-yl)-1-methyl-1H-pyrazol-5-yl)-3-chloro-2-methylbenzonitrile] | 0.158 | > 1 | > 10 |  |  | 0.316 | 0.028
6 | Cc1ccc(-c2c(-c3ccc4c(=O)[nH]nc(CN)c4c3)cnn2C)c(C#N)c1C [Example 12-2, 6-(4-(4-(aminomethyl)-1-oxo-1,2-dihydrophthalazin-6-yl)-1-methyl-1H-pyrazol-5-yl)-2,3-dimethylbenzonitrile] | > 10 | 2.2 | 0.208 |  |  | 0.315 | 0.016
7 | CCc1cc(CC)c(C#N)c(-c2c(-c3ccc4c(=O)[nH]nc(CN)c4c3)cnn2C)c1 [Example 12-3, 2-[4-[4-(aminomethyl)-1-oxo-2H-phthalazin-6-yl]-2-methyl-pyrazol-3-yl]-4,6-diethyl-benzonitrile] | 0.137 | > 1 | 1.69 |  |  | 0.212 | 0.008
8 | Cc1cccc2c(C#N)c(-c3c(-c4ccc5c(=O)[nH]nc(CN)c5c4)cnn3C)ccc12 [Example 12-9, 2-(4-(4-(aminomethyl)-1-oxo-1,2-dihydrophthalazin-6-yl)-1-methyl-1H-pyrazol-5-yl)-5-methyl-1-naphthonitrile] | 0.148 | > 10 | 3.35 |  |  | 0.178 | 0.009
9 | Cc1cc(C)c(C#N)c(-c2c(-c3ccc4c(=O)[nH]nc(CN)c4c3)cnn2C)c1 [Example 12-11, 2-(4-(4-(aminomethyl)-1-oxo-1,2-dihydrophthalazin-6-yl)-1-methyl-1H-pyrazol-5-yl)-4,6-dimethylbenzonitrile] | 0.125 | 1.23 | 8.71 |  |  | 0.234 | 0.018
10 | Cc1c(-c2cnn(C)c2)ccc(-c2c(-c3ccc4c(=O)[nH]nc(CN)c4c3)cnn2C)c1C#N [Example 12-13, 6-(4-(4-(aminomethyl)-1-oxo-1,2-dihydrophthalazin-6-yl)-1-methyl-1H-pyrazol-5-yl)-2-methyl-3-(1-methyl-1H-pyrazol-4-yl)benzonitrile] | 1.41 | > 1 | 2 |  |  | 0.218 | 0.095
11 | Cc1cc(C2CC2)cc(-c2c(-c3ccc4c(=O)[nH]nc(CN)c4c3)cnn2C)c1C#N [Example 12-14, 2-[4-[4-(aminomethyl)-1-oxo-2H-phthalazin-6-yl]-2-methyl-pyrazol-3-yl]-4-cyclopropyl-6-methyl-benzonitrile] | 0.226 | 1.81 | > 10 |  |  | 0.182 | 0.015
